Experimental findings from patent US7612061B2, “Piperazine compounds” (Les Laboratoires Servier, priority 2005, dated 2009) are described below.

SMILES strings stand for the structures. Where a name gives a salt, the structure may show the parent alone.

In one assay the target is T1, serotonin (5-HTT) reuptake site (Rattus norvegicus, UniProt P31652).
T1 construct: on rat frontal cortex membranes; from tissue; host or cells: rat frontal cortex membranes
T1 sequence (P31652 whole entry): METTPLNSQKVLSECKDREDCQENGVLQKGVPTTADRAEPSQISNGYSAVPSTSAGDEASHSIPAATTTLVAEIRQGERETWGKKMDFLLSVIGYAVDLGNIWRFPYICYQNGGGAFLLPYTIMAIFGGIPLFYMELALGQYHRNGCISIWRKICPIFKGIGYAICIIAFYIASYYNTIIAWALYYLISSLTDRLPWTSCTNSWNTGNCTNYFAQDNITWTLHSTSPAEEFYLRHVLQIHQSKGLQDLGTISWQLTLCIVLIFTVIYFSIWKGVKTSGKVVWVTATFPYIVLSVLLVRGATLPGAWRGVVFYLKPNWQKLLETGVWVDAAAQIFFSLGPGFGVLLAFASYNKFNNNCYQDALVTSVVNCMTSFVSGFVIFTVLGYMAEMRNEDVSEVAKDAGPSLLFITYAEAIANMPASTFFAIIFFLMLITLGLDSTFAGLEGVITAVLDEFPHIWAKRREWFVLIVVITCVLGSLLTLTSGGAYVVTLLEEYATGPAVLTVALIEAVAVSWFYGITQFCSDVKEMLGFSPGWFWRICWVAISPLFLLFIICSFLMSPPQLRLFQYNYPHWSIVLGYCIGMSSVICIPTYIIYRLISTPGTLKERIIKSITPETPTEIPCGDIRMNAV
As to the kind of experiment: Affinity for serotonin reuptake sites in the rat ([3H]-citalopram competition). Conditions: rat frontal cortex membranes, 0.7 nM [3H]-citalopram, 2 hours at 25° C.; pKi=-log Ki (Cheng-Prusoff); read-out: pKi r5-HTT (converted). In kind it is binding. As for the experimental part: The affinity of the compounds for the serotonin (5-HTT) reuptake site is evaluated by competition experiments with [^3H]-citalopram on rat frontal cortex membranes. The cortices are homogenised using a Polytron in 40 volumes (weight/volume) of cold Tris-HCl (50 mM, pH 7.4) incubation buffer containing 120 mM NaCl and 5 mM KCl and are then centrifuged for a first time. The sediment is resuspended in the same buffer, incubated for 10 minutes at 37° C. and then re-centrifuged. The membranes are washed a further two times and the sediment is then resuspended in an appropriate volume of incubation buffer. The membranes are then incubated for 2 hours at 25° C. with the compound under test in the presence of 0.7 nM [^3H]-citalopram. Non-specific binding is determined with 10 μM fluoxetine. At the end of the incubation period, the samples are filtered through Unifilter GF/B type filters pretreated with PEI (0.5%) and washed several times with the incubation buffer. The radioactivity retained on the filters is counted after addition of scintillation liquid, with the aid of a scintillation counter. The isotherms obtained are analysed by non-linear regression to determine the IC50 values, which are converted into Ki using the Cheng-Prusoff equation: Ki=IC50/(1+L/kD) wherein L represents the concentration of radioligand and kD is the dissociation constant of [^3H]-citalopram on the serotonin reuptake site (0.7 nM). The results are expressed as pKi=−log Ki.
Regarding `Brc1cc(Br)cc(CO[C@@H]2Cc3ccccc3[C@H]2N2CCNCC2)c1` (racemic) [Example 1, trans-1-{2-[(3,5-Dibromobenzyl)oxy]-2,3-dihydro-1H-inden-1-yl}-piperazine dihydrochloride], the Ki is 4.47 nM.
For the compound `Brc1cc(Br)cc(CO[C@@H]2COc3ccccc3[C@H]2N2CCNCC2)c1` (racemic) [Example 4, trans-1-{3-[(3,5-Dibromobenzyl)oxy]-3,4-dihydro-2H-chromen-4-yl}piperazine dihydrochloride], the Ki was 79.4 nM.
Same read-out and setting: then `COc1ccc2c(c1)[C@@H](N1CCNCC1)[C@H](OCc1cc(Cl)cc(Cl)c1)C2` (relative stereo) [Example 42, trans-1-{2-[(3,5-Dichlorobenzyl)oxy]-6-methoxy-2,3-dihydro-1H-inden-1-yl}piperazine dihydrochloride], with 19.5 nM.
Same read-out and setting: then `Clc1cc(Cl)cc(CO[C@@H]2COc3ccccc3[C@H]2N2CCNCC2)c1` (relative stereo) [Example 44, trans-1-{3-[(3,5-Dichlorobenzyl)oxy]-3,4-dihydro-2H-chromen-4-yl}-piperazine dihydrochloride], with 49 nM; and `Fc1cc(Cl)cc(CO[C@@H]2COc3ccccc3[C@H]2N2CCNCC2)c1` (relative stereo) [Example 47, trans-1-{3-(3-Chloro-5-fluorobenzyloxy)-3,4-dihydro-2H-chromen-4-yl}piperazine dihydrochloride], with 35.5 nM.
For the compound `Brc1cc(Br)cc(CO[C@@H]2Cc3ccccc3[C@@H]2N2CCNCC2)c1` [Example 21, 1-{(1S,2R)-2-[(3,5-Dibromobenzyl)oxy]-2,3-dihydro-1H-inden-1-yl}-piperazine dihydrochloride], the Ki was 12.3 nM.
Still for that read-out and setting: under `Fc1cc(F)cc(CO[C@@H]2Cc3ccccc3[C@@H]2N2CCNCC2)c1` [Example 36, 1-[(1S,2R)-2-[(3,5-Difluorobenzyl)oxy]-2,3-dihydro-1H-inden-1-yl]-piperazine dihydrochloride] stands 1.07 nM; under `Cc1cc(C)cc(CO[C@@H]2Cc3ccccc3[C@@H]2N2CCNCC2)c1` [Example 38, 1-[(1S,2R)-2-[(3,5-Dimethylbenzyl)oxy]-2,3-dihydro-1H-inden-1-yl]-piperazine dihydrochloride], 1.86 nM.

For a further assay, the target named is T2, human NK1 receptors (Homo sapiens, UniProt P25103).
T2 construct: IM9 human lymphoblast cells endogenously expressing NK1 receptors; endogenous in cells; host or cells: IM9 human lymphoblast cells (whole-cell preparation)
T2 sequence (P25103 whole entry): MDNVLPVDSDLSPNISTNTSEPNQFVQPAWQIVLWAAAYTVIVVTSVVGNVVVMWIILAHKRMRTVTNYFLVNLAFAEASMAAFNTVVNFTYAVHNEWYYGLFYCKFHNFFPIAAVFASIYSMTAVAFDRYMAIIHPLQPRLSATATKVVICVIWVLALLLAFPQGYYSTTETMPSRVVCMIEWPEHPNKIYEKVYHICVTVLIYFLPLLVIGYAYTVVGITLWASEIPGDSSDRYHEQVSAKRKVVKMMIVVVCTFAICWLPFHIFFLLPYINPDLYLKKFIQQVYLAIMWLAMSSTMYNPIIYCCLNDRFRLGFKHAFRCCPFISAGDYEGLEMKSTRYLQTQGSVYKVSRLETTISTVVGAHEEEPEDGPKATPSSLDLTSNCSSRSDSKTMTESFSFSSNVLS
In words: hNK1 binding ([3H]-Substance P competition on IM9 human lymphoblast cells). As to conditions: IM9 human lymphoblast cells endogenously expressing NK1 receptors, 1.5 nM [3H]-Substance P, 90 minutes at ambient temperature; pKi=-log Ki (Cheng-Prusoff). As for the experimental part:
The affinity of compounds of the invention was determined by competition experiments in the presence of [^3H]-Substance P (Sar-9, MetO2-11,2-propyl-3,4-3H). IM9 human lymphoblast cells endogenously expressing NK1 receptors are centrifuged and taken up in the incubation buffer containing 50 mM TRIS, 150 mM NaCl, 4 mM CaCl2, protease inhibitors at 1/100^e (Cocktail SIGMA P8340) and 0.2% BSA. The volume of incubation buffer is determined so as to obtain a concentration of 5×10^6 cells/ml. The cell preparation is then incubated together with 1.5 nM [^3H]-Substance P and the compound under test for 90 minutes at ambient temperature. Non-specific binding is determined in the presence of 1 μM GR 205171.
At the end of the incubation period, the samples are filtered through Unifilter GF/B type filters pretreated with PEI (0.1%) and washed several times with the filtration buffer (50 mM TRIS, 150 mM NaCl, 4 mM CaCl2). The radioactivity retained on the filters is measured by counting after addition of scintillation liquid to the filters. The counts are analysed by non-linear regression, allowing the isotherms to be plotted and the IC50 values to be determined. The latter are then converted into inhibition constants (Ki) by means of the Cheng-Prusoff equation: Ki=IC50/(1+L/KD) wherein L is the concentration of [^3H]-Substance P and KD is the dissociation constant of [^3H]-Substance P for human NK1 receptors (0.53 nM). The results are expressed as pKi(−log Ki).
`Brc1cc(Br)cc(CO[C@@H]2Cc3ccccc3[C@H]2N2CCNCC2)c1` (racemic) [Example 1, trans-1-{2-[(3,5-Dibromobenzyl)oxy]-2,3-dihydro-1H-inden-1-yl}-piperazine dihydrochloride] had a Ki of 145 nM.
Same read-out and setting: under `Brc1cc(Br)cc(CO[C@@H]2COc3ccccc3[C@H]2N2CCNCC2)c1` (racemic) [Example 4, trans-1-{3-[(3,5-Dibromobenzyl)oxy]-3,4-dihydro-2H-chromen-4-yl}piperazine dihydrochloride] stands 5.62 nM.
Compound `Brc1cc(Br)cc(CO[C@@H]2CCc3ccccc3[C@H]2N2CCNCC2)c1` (racemic) [Example 15, trans-1-{2-[(3,5-Dibromobenzyl)oxy]-1,2,3,4-tetrahydronaphth-1-yl}piperazine dihydrochloride] gave a Ki of 33.1 nM.
For the compound `Brc1cc(Br)cc(CO[C@@H]2CCCc3ccccc3[C@H]2N2CCNCC2)c1` (relative stereo) [Example 7, trans-1-{6-[(3,5-Dibromobenzyl)oxy]-6,7,8,9-tetrahydro-5H-benzo-[7]annulen-5-yl}piperazine dihydrochloride], the Ki was 7.24 nM.
Same read-out and setting: under `Brc1cc(Br)cc(CO[C@@H]2CCOc3ccccc3[C@H]2N2CCNCC2)c1` (relative stereo) [Example 8, trans-1-{4-[(3,5-Dibromobenzyl)oxy]-2,3,4,5-tetrahydro-1-benzoxepin-5-yl}piperazine dihydrochloride] stands 28.8 nM; under `NC1CCN([C@@H]2c3ccccc3OC[C@H]2OCc2cc(Br)cc(Br)c2)CC1` (relative stereo) [Example 9, trans-1-{3-[(3,5-Dibromobenzyl)oxy]-3,4-dihydro-2H-chromen-4-yl}piperidin-4-amine dihydrochloride], 11 nM.
On the same count and under the same terms, then `COc1ccc2c(c1)CC[C@@H](OCc1cc(Br)cc(Br)c1)[C@@H]2N1CCNCC1` (relative stereo) [Example 13, trans-1-{2-[(3,5-Dibromobenzyl)oxy]-6-methoxy-1,2,3,4-tetrahydro-naphth-1-yl}piperazine dihydrochloride], with 251 nM; and `FC(F)(F)c1cc(CO[C@@H]2Cc3ccccc3[C@H]2N2CCNCC2)cc(C(F)(F)F)c1` (relative stereo) [Example 40, trans-1-(2-{[3,5-Bis(trifluoromethyl)benzyl]oxy}-2,3-dihydro-1H-inden-1-yl)piperazine dihydrochloride], with 141 nM; and `Brc1cc(Br)cc(COC2CCc3ccccc3C2N2CCCNCC2)c1` (single isomer, unassigned; (-)) [Example 19, (−) isomer of trans-1-{2-[(3,5-dibromobenzyl)oxy]-1,2,3,4-tetra-hydronaphth-1-yl}-1,4-diazepane dihydrochloride], with 39.8 nM.
